Laboratory results: patent publication US12497408B2, “Tetracyclic compounds and methods for the treatment of Zika virus infection” (priority 2021, dated 2025)
pEC50: −log10 of the molar value.

test system: ZIKV; test: ZIKV reporter virus-based antiviral screening on Huh7 cells; format: cell-based, Zika virus; details: Zika virus, Huh-7, 48 h, Huh7 cells infected with recombinant luciferase reporter ZIKV (MOI about 0.1), luciferase signal
Source text: Protocol for ZIKV reporter virus-based antiviral screening on Huh7 cells:
• Human hepatocyte-derived carcinoma cell line (Huh7) 2. Reagents • ViviRen™ Live Cell Substrate (Promega, Cat #E6492) or Nano Glo assay system (Promega: N1130) • White opaque 96-well TC-treated microplates (Corning, Cat #3916) • 96-well Clear V-Bottom TC-treated Microplate (Corning, Cat #3894) • Complete cell culture media: DMEM (Gibco, Cat #10569) supplemented with 10% FBS (HyClone, Cat #SH30071.03IH25-40)+1% MEM Non-Essential Amino Acids Solution 100×(Gibco, Cat #11140050)+1% Penicillin-Streptomycin (10,000 U/mL) (Gibco, Cat #15140122). • Assay media: DMEM media (Gibco, Cat #31053028) supplemented with 2% FBS, 2% GlutaMAX™ Supplement (Gibco Cat #35050061), 1% Sodium Pyruvate solution (Gibco, Cat #11360070), 1% MEM Non-Essential Amino Acids Solution 100× and 1% Penicillin-Streptomycin (10,000 U/mL). • Trypsin-EDTA solution (Gibco, Cat #25200056) 3. Virus • Recombinant ZIKV strain with Renilla luciferase gene (strain FSS-Rlu) or Nano luciferase gene (Strain PRV-Nano, Dakar-Nano) 4. Instruments • BioTek Cytation 5 or other plate-readers for chemiluminescence detection model. • Eppendorf plate centrifuge • Plate shaker • Eppendorf multichannel pipettes Procedures Day 1: Preparation of Cells • Human hepatocyte-derived carcinoma cell line (Huh7) cells were detached from a T-175 flask by using a Trypsin-EDTA solution. The detached cells were suspended in complete culture media in a sterile 50-ml conical tube. • The 50-ml conical tube was centrifuged at 1200×rpm for 3 min at room temperature. • The cells were resuspended in assay media. The cell numbers were counted, and the cells diluted to a density of 3×10^5 cells/ml. • The cells were plated at 50 μl cells per well in White opaque 96-well plates (assay plates). Gently shake the plates to ensure cells to attach to the plate evenly. • The plated cells were incubated in a humidified incubator (37° C. with 5% CO2). Day 2: Infection • 1) Nine serial (2-fold or 3-fold) concentrated compounds were prepared using 90% DMSO solution and DMSO controls in a clear V-bottom 96-well plate (compound plate). • For example:
• 2) The reporter virus stock was diluted to a concentration of 3×10^4 FFU (FFU: focus-forming unit)/ml using the assay media. 200 μl diluted virus per well was aliquoted into a clear V-bottom 96-well plate (mixing plate). • 3) 1 μl above 400×concentrated compound dilutions was added from the compound plate to each well of the mixing plate. The plates were shaken on a plate shaker for 5 min. • 4) 50 μl compound-virus mixture was added into each well of the assay plates (the MOI is about 0.1). The plates were shaken gently by mixing the virus evenly. • An example of the format for assay plate:
• control. • 5) The plates were centrifuged at 1000 rpm for 15 s. • 6) The plates were incubated at 37° C. with 5% CO2 in a humidified incubator for 48 hrs. Day 4: Read Luciferase Signals • 7) The ViviRen™ Live Cell Substrate was diluted in assay media for 3000× folds. 25 μl of diluted substrates was added into each well of the assay plates. • For Nano-Glo assay system, 50 μl diluted substrates (50×fold diluted from the stock in assay buffer) were added. • 8) The plates were incubated at room temperature for 5 min. • 9) Optimally, cell viability is measured using the Promega Cell-titer Glo kit (only used when ZIKV-Rlu was used for infection). • 10) Luciferase signals were read using the Cytation 5 with gain value of 120-150. Data Analysis • a. The luciferase signals from DMSO-treated groups (un-treated controls) were set as 100%. The relative luciferase signals were obtained by normalizing the luciferase signals from each dilution-treated group to that of the controls. • b.

Compared with `CC[C@H](C)[C@H](NC(=O)OC)C(=O)N1CCC[C@H]1c1ncc(-c2cc3c4c(c2)OCc2cc(-c5[nH]c([C@@H]6CCCN6C(=O)[C@@H](NC(=O)OC)[C@@H](C)CC)nc5Cl)cc(c2-4)OC3)[nH]1` [Compound 22, methyl ((2S,3S)-1-((S)-2-(5-(7-(4-chloro-2-((S)-1-((methoxycarbonyl)-L-isoleucyl)pyrrolidin-2-yl)-1H-imidazol-5-yl)-5,10-dihydrochromeno[5,4,3-cde]chromen-2-yl)-1H-imidazol-2-yl)pyrrolidin-1-yl)-3-methyl-1-oxopentan-2-yl)carbamate], `CC[C@H](C)[C@H](NC(=O)OC)C(=O)N1CCCC[C@H]1c1nc(Cl)c(-c2cc3c4c(c2)OCc2cc(-c5[nH]c([C@@H]6CCCCN6C(=O)[C@@H](NC(=O)OC)[C@@H](C)CC)nc5Cl)cc(c2-4)OC3)[nH]1` [Compound 14, dimethyl ((2S,2′S,3S,3′S)-((2S,2′S)-((5,10-dihydrochromeno[5,4,3-cde]chromene-2,7-diyl)bis(4-chloro-1H-imidazole-5,2-diyl))bis(piperidine-2,1-diyl))bis(3-methyl-1-oxopentane-1,2-diyl))dicarbamate] is 0.49 log units higher in pEC50: 7.85 for the first, 8.34 for the second. The second is the more potent here.

First: CCCc1nc([C@@H]2CCCN2C(=O)[C@@H](NC(=O)OC)C(C)C)[nH]c1-c1cc2c3c(c1)OCc1cc(-c4[nH]c([C@@H]5CCCN5C(=O)[C@@H](NC(=O)OC)C(C)C)nc4CCC)cc(c1-3)OC2 [Compound 79, dimethyl ((2S,2′S)-((2S,2′S)-((5,10-dihydrochromeno[5,4,3-cde]chromene-2,7-diyl)bis(4-propyl-1H-imidazole-5,2-diyl))bis(pyrrolidine-2,1-diyl))bis(3-methyl-1-oxobutane-1,2-diyl))dicarbamate]
Second: COC(=O)N[C@H](C(=O)N1C[C@@H](C)C[C@H]1c1nc(Cl)c(-c2cc3c4c(c2)OCc2cc(-c5[nH]c([C@@H]6C[C@H](C)CN6C(=O)[C@@H](NC(=O)OC)C(C)C)nc5C(C)C)cc(c2-4)OC3)[nH]1)C(C)C [Compound 80, methyl ((S)-1-((2S,4S)-2-(5-(7-(4-chloro-2-((2S,4S)-1-((methoxycarbonyl)-L-valyl)-4-methylpyrrolidin-2-yl)-1H-imidazol-5-yl)-5,10-dihydrochromeno[5,4,3-cde]chromen-2-yl)-4-isopropyl-1H-imidazol-2-yl)-4-methylpyrrolidin-1-yl)-3-methyl-1-oxobutan-2-yl)carbamate]
The pEC50 of the first is 1.54 log units lower: 6.70 for the first, 8.24 for the second.

First: COC(=O)N[C@H](C(=O)N1C[C@H](F)C[C@H]1c1nc(Cl)c(-c2cc3c4c(c2)OCc2cc(-c5[nH]c([C@@H]6C[C@@H](F)CN6C(=O)[C@@H](NC(=O)OC)C(C)(C)C(F)(F)F)nc5Cl)cc(c2-4)OC3)[nH]1)C(C)(C)C(F)(F)F [Compound 55, dimethyl ((2S,2′S)-((3R,3′R,5S,5′S)-((5,10-dihydrochromeno[5,4,3-cde]chromene-2,7-diyl)bis(4-chloro-1H-imidazole-5,2-diyl))bis(3-fluoropyrrolidine-5,1-diyl))bis(4,4,4-trifluoro-3,3-dimethyl-1-oxobutane-1,2-diyl))dicarbamate]
Second: COC(=O)N[C@H](C(=O)N1CCC[C@H]1c1nc(Cl)c(-c2cc3c4c(c2)OCc2cc(-c5[nH]c([C@@H]6CCCN6C(=O)[C@@H](NC(=O)OC)C(C)(C)C(F)(F)F)nc5Cl)cc(c2-4)OC3)[nH]1)C(C)(C)C(F)(F)F [Compound 27, dimethyl ((2S,2′S)-((2S,2′S)-((5,10-dihydrochromeno[5,4,3-cde]chromene-2,7-diyl)bis(4-chloro-1H-imidazole-5,2-diyl))bis(pyrrolidine-2,1-diyl))bis(4,4,4-trifluoro-3,3-dimethyl-1-oxobutane-1,2-diyl))dicarbamate]
The pEC50 of the first is 0.26 log units lower: 8.33 for the first, 8.59 for the second. The second is the more potent here.

`CC[C@H](C)[C@H](NC(=O)OC)C(=O)N1[C@H](c2nc(Cl)c(-c3cc4c5c(c3)OCc3cc(-c6[nH]c([C@@H]7C[C@@H]8CCC[C@@H]8N7C(=O)[C@@H](NC(=O)OC)[C@@H](C)CC)nc6Cl)cc(c3-5)OC4)[nH]2)C[C@@H]2CCC[C@@H]21` [Compound 36, dimethyl ((2S,2′S,3S,3′S)-((2S,2′S,3aS,3a′S,6aS,6a′S)-((5,10-dihydrochromeno[5,4,3-cde]chromene-2,7-diyl)bis(4-chloro-1H-imidazole-5,2-diyl))bis(hexahydrocyclopenta[b]pyrrole-2,1(2H)-diyl))bis(3-methyl-1-oxopentane-1,2-diyl))dicarbamate] and `CC[C@H](C)[C@H](NC(=O)OC)C(=O)N1CC(C)(C)C[C@H]1c1nc(Cl)c(-c2cc3c4c(c2)OCc2cc(-c5[nH]c([C@@H]6CC(C)(C)CN6C(=O)[C@@H](NC(=O)OC)[C@@H](C)CC)nc5Cl)cc(c2-4)OC3)[nH]1` [Compound 8, dimethyl ((2S,2′S,3S,3′S)-((5S,5′S)-((5,10-dihydrochromeno[5,4,3-cde]chromene-2,7-diyl)bis(4-chloro-1H-imidazole-5,2-diyl))bis(3,3-dimethylpyrrolidine-5,1-diyl))bis(3-methyl-1-oxopentane-1,2-diyl))dicarbamate] are within 0.2 log units of each other in pEC50: 8.37 for the first, 8.36 for the second.

First: COC(=O)N[C@H](C(=O)N1C[C@@H](C)C[C@H]1c1nc(Cl)c(-c2cc3c4c(c2)OCc2cc(-c5[nH]c([C@@H]6C[C@H](C)CN6C(=O)[C@@H](NC(=O)OC)[C@@H](C)OC)nc5Cl)cc(c2-4)OC3)[nH]1)[C@@H](C)OC [Compound 47, dimethyl ((2S,2′S,3R,3′R)-((3S,3′S,5S,5′S)-((5,10-dihydrochromeno[5,4,3-cde]chromene-2,7-diyl)bis(4-chloro-1H-imidazole-5,2-diyl))bis(3-methylpyrrolidine-5,1-diyl))bis(3-methoxy-1-oxobutane-1,2-diyl))dicarbamate]
Second: COC(=O)N[C@H](C(=O)N1[C@@H](C)CC[C@H]1c1nc(Cl)c(-c2cc3c4c(c2)OCc2cc(-c5[nH]c([C@@H]6CC[C@H](C)N6C(=O)[C@@H](NC(=O)OC)C(C)C)nc5C(C)C)cc(c2-4)OC3)[nH]1)C(C)C [Compound 43, methyl ((S)-1-((2S,5S)-2-(5-(7-(4-chloro-2-((2S,5S)-1-((methoxycarbonyl)-L-valyl)-5-methylpyrrolidin-2-yl)-1H-imidazol-5-yl)-5,10-dihydrochromeno[5,4,3-cde]chromen-2-yl)-4-isopropyl-1H-imidazol-2-yl)-5-methylpyrrolidin-1-yl)-3-methyl-1-oxobutan-2-yl)carbamate]
The pEC50 of the first is 1.03 log units lower: 7.77 for the first, 8.80 for the second.

`COC(=O)N[C@H](C(=O)N1[C@@H](C)CC[C@H]1c1nc(C(C)C)c(-c2cc3c4c(c2)OCc2cc(-c5[nH]c([C@@H]6CC[C@H](C)N6C(=O)[C@@H](NC(=O)OC)C(C)(C)C(F)(F)F)nc5C(C)C)cc(c2-4)OC3)[nH]1)C(C)(C)C(F)(F)F` [Compound 42, dimethyl ((2S,2′S)-((2S,2′S,5S,5′S)-((5,10-dihydrochromeno[5,4,3-cde]chromene-2,7-diyl)bis(4-isopropyl-1H-imidazole-5,2-diyl))bis(2-methylpyrrolidine-5,1-diyl))bis(4,4,4-trifluoro-3,3-dimethyl-1-oxobutane-1,2-diyl))dicarbamate] showed a pEC50 of 8.72.
